Laboratory results published in patent US20250025482A1, “USE OF C[…] THE TREATMENT OF EPILEPSY” (GW Research Limited, priority 2021, published 2025).

Assays:
Type in all cases: in vivo, human (patients)
[1] = system: Patients aged 1-2 years old with Dravet Syndrome (DS); experiment: Expanded access treatment with highly purified CBD extract, seizure frequency, Patient 1 (Dravet Syndrome); design: key to Seizure frequency, Clonic / Seizure frequency, Tonic-clonic / Seizure frequency, Focal with impairment: number of seizures per day; conditions: for Seizure frequency, Focal with impairment / Seizure frequency, Tonic-clonic: baseline 3.0; for Seizure frequency, Clonic: baseline 4.0
Experimental: (§1) Example 1 below describes the use of a highly purified cannabis extract comprising cannabidiol (CBD) in an expanded access treatment program in children with TRE.
(§2) Patients aged 1-2 years old with Dravet Syndrome (DS), Lennox-Gastaut Syndrome (LGS), or Tuberous Sclerosis Complex (TSC) were administered a highly purified extract of cannabidiol (CBD) obtained from a cannabis plant […].
(§3) The highly purified CBD extract (greater than 98% CBD w/w) was administered in a formulation described herein at a starting dose of 5 mg/kg/day in addition to their baseline anti-epileptic drug (AED) regimen.
(§4) The starting dose of the patients was increased from 5 mg/kg/day to 10 mg/kg/day after one week of administering the first dose of CBD.
(§5) All patients were taking at least two concomitant anti-epileptic drugs. These included clobazam; levetiracetam; topiramate; vigabatrin; phenobarbital; and lacosamide.
(§6) Prior to treatment with CBD, the number of seizures for each patient at baseline was recorded. During the course of treatment, the number of seizures that each patient experienced per day was recorded. Table 9 provides information on the demographics, seizure type, and concomitant anti-epileptic drugs (AED) for each patient that was administered the highly purified extract of CBD.

seizures in patients = experiment: Onset of effect of seizure reduction during CBD titration; conditions: patients receiving 5 mg/kg/day; e.g., at 2, 3, 4, 5, or 6 days
[2] = system: Patients aged 1-2 years old with Tuberous Sclerosis Complex (TSC); experiment: Expanded access treatment with highly purified CBD extract, seizure frequency, Patient 3 (Tuberous Sclerosis Complex); design: key to Seizure frequency, Focal with impairment / Seizure frequency, Focal without impairment: number of seizures per day; conditions: for Seizure frequency, Focal without impairment / Seizure frequency, Focal with impairment / Seizure frequency, Focal with secondary generalisation: Patient 3, Tuberous Sclerosis; for Seizure frequency, Focal without impairment: baseline 0.0; for Seizure frequency, Focal with impairment: baseline 25.4; for Seizure frequency, Focal with secondary generalisation: baseline 63.0
Experimental: as §1, §2, §3, §4, §5, §6

[3] = system: Patients aged 1-2 years old with Lennox-Gastaut Syndrome (LGS); experiment: Expanded access treatment with highly purified CBD extract, seizure frequency, Patient 2 (Lennox-Gastaut Syndrome); design: key to Seizure frequency, Clonic / Seizure frequency, Tonic / Seizure frequency, Atonic / Seizure frequency, Absence: number of seizures per day; conditions: for Seizure frequency, Tonic: baseline 4.0; for Seizure frequency, Absence: baseline 120.0; for Seizure frequency, Clonic: baseline 200.0; for Seizure frequency, Atonic: baseline 300.0
Experimental: as §1, §2, §3, §4, §5, §6

[4] = Patient 1, Dravet Syndrome, 2 weeks, dose CBD 11.7 mg/kg/day
[5] = Patient 1, Dravet Syndrome, 4 weeks, dose CBD 19.2 mg/kg/day
[6] = Patient 1, Dravet Syndrome, 8 weeks, dose CBD 24.3 mg/kg/day
[7] = Patient 1, Dravet Syndrome, 16 weeks, dose CBD 25.4 mg/kg/day
[8] = Patient 1, Dravet Syndrome, 24 weeks, dose CBD 24.8 mg/kg/day
[9] = Patient 1, Dravet Syndrome, 36 weeks, dose CBD 23.0 mg/kg/day
[10] = Patient 1, Dravet Syndrome, 48 weeks, dose CBD 22.6 mg/kg/day
[11] = Patient 1, Dravet Syndrome, over the treatment period
[12] = Patient 3, Tuberous Sclerosis Complex, over the treatment period
[13] = 2 weeks, dose CBD 10.0 mg/kg/day
[14] = 4 weeks, dose CBD 20.0 mg/kg/day
[15] = 8 weeks, dose CBD 15.0 mg/kg/day
[16] = 16 weeks, dose CBD 15.0 mg/kg/day
[17] = 24 weeks, dose CBD 13.0 mg/kg/day
[18] = 36 weeks, dose CBD 13.0 mg/kg/day
[19] = 48 weeks, dose CBD 13.0 mg/kg/day
[20] = 60 weeks, dose CBD 11.5 mg/kg/day
[21] = 84 weeks, dose CBD 27.0 mg/kg/day
[22] = 96 weeks, dose CBD 22.0 mg/kg/day
[23] = 108 weeks, dose CBD 13.0 mg/kg/day
[24] = 120 weeks, dose CBD 29.0 mg/kg/day
[25] = 144 weeks, dose CBD 35.0 mg/kg/day
[26] = Patient 2, Lennox-Gastaut Syndrome, 4 weeks, dose CBD 25.0 mg/kg/day
[27] = Patient 2, Lennox-Gastaut Syndrome, 8 weeks, dose CBD 50.0 mg/kg/day
[28] = Patient 2, Lennox-Gastaut Syndrome, 12 weeks, dose CBD 49.6 mg/kg/day
[29] = Patient 2, Lennox-Gastaut Syndrome, 24 weeks, dose CBD 49.0 mg/kg/day
[30] = Patient 2, Lennox-Gastaut Syndrome, 36 weeks, dose CBD 48.6 mg/kg/day
[31] = Patient 2, Lennox-Gastaut Syndrome, 60 weeks, dose CBD 3.7 mg/kg/day
[32] = Patient 2, Lennox-Gastaut Syndrome, 72 weeks, dose CBD 50.0 mg/kg/day
[33] = Patient 2, Lennox-Gastaut Syndrome, over the treatment period

C=C(C)[C@@H]1CCC(C)=C[C@H]1c1c(O)cc(CCCCC)cc1O [CBD, Cannabidiol]
relief from clonic seizures after treatment ([1]; Patient 1): complete relief | relief from focal seizures with impairment after treatment ([1]; Patient 1): complete relief | Seizure frequency, Focal with impairment [1, 4]: 0.0 | Seizure frequency, Tonic-clonic [1, 4]: 4.0 | Seizure frequency, Clonic [1, 4]: 6.0 | Seizure frequency, Focal with impairment [1, 5]: 0.0 | Seizure frequency, Tonic-clonic [1, 5]: 2.0 | Seizure frequency, Clonic [1, 5]: 4.0 | Seizure frequency, Focal with impairment [1, 6]: 0.0 | Seizure frequency, Tonic-clonic [1, 6]: 0.0 | Seizure frequency, Clonic [1, 6]: 2.0 | Seizure frequency, Focal with impairment [1, 7]: 0.0 | Seizure frequency, Tonic-clonic [1, 7]: 0.0 | Seizure frequency, Clonic [1, 7]: 2.6 | Seizure frequency, Focal with impairment [1, 8]: 0.0 | Seizure frequency, Tonic-clonic [1, 8]: 1.6 | Seizure frequency, Clonic [1, 8]: 0.8 | Seizure frequency, Focal with impairment [1, 9]: 0.0 | Seizure frequency, Tonic-clonic [1, 9]: 6.9 | Seizure frequency, Clonic [1, 9]: 0.0 | Seizure frequency, Focal with impairment [1, 10]: 0.0 | Seizure frequency, Tonic-clonic [1, 10]: 6.5 | Seizure frequency, Clonic [1, 10]: 0.0 | reduction in clonic seizures [1, 11]: 100% | reduction in focal seizures with impairment [1, 11]: 100% | onset of effect of seizure reduction (seizures in patients): within one week | relief from focal seizures with impairment after treatment ([2]; Patient 3): complete relief | reduction in focal seizures with impairment [2, 12]: 100% | reduction in focal seizures with secondary generalisation [2, 12]: 100% | Seizure frequency, Focal without impairment [2, 13]: 0.0 | Seizure frequency, Focal with impairment [2, 13]: 20.0 | Seizure frequency, Focal with secondary generalisation [2, 13]: 50.0 | Seizure frequency, Focal without impairment [2, 14]: 0.0 | Seizure frequency, Focal with impairment [2, 14]: 22.0 | Seizure frequency, Focal with secondary generalisation [2, 14]: 61.0 | Seizure frequency, Focal without impairment [2, 15]: 0.0 | Seizure frequency, Focal with impairment [2, 15]: 15.4 | Seizure frequency, Focal with secondary generalisation [2, 15]: 109.1 | Seizure frequency, Focal without impairment [2, 16]: 0.0 | Seizure frequency, Focal with impairment [2, 16]: 0.6 | Seizure frequency, Focal with secondary generalisation [2, 16]: 46.2 | Seizure frequency, Focal without impairment [2, 17]: 0.0 | Seizure frequency, Focal with impairment [2, 17]: 0.0 | Seizure frequency, Focal with secondary generalisation [2, 17]: 58.1 | Seizure frequency, Focal without impairment [2, 18]: 0.0 | Seizure frequency, Focal with impairment [2, 18]: 0.0 | Seizure frequency, Focal with secondary generalisation [2, 18]: 0.0 | Seizure frequency, Focal without impairment [2, 19]: 0.0 | Seizure frequency, Focal with impairment [2, 19]: 0.0 | Seizure frequency, Focal with secondary generalisation [2, 19]: 14.8 | Seizure frequency, Focal without impairment [2, 20]: 0.0 | Seizure frequency, Focal with impairment [2, 20]: 71.3 | Seizure frequency, Focal with secondary generalisation [2, 20]: 0.0 | Seizure frequency, Focal without impairment [2, 21]: 0.0 | Seizure frequency, Focal with impairment [2, 21]: 62.5 | Seizure frequency, Focal with secondary generalisation [2, 21]: 0.0 | Seizure frequency, Focal without impairment [2, 22]: 0.0 | Seizure frequency, Focal with impairment [2, 22]: 14.8 | Seizure frequency, Focal with secondary generalisation [2, 22]: 0.0 | Seizure frequency, Focal without impairment [2, 23]: 10.8 | Seizure frequency, Focal with impairment [2, 23]: 0.3 | Seizure frequency, Focal with secondary generalisation [2, 23]: 0.0 | Seizure frequency, Focal without impairment [2, 24]: 11.4 | Seizure frequency, Focal with impairment [2, 24]: 0.0 | Seizure frequency, Focal with secondary generalisation [2, 24]: 0.0 | Seizure frequency, Focal without impairment [2, 25]: 9.8 | Seizure frequency, Focal with impairment [2, 25]: 0.0 | Seizure frequency, Focal with secondary generalisation [2, 25]: 0.0 | relief from clonic seizures after treatment ([3]; Patient 2): complete relief | Seizure frequency, Tonic [3, 26]: 116.0 | Seizure frequency, Absence [3, 26]: 116.0 | Seizure frequency, Clonic [3, 26]: 64.0 | Seizure frequency, Atonic [3, 26]: 388.0 | Seizure frequency, Tonic [3, 27]: 48.0 | Seizure frequency, Absence [3, 27]: 78.0 | Seizure frequency, Clonic [3, 27]: 40.0 | Seizure frequency, Atonic [3, 27]: 564.0 | Seizure frequency, Tonic [3, 28]: 116.0 | Seizure frequency, Absence [3, 28]: 140.0 | Seizure frequency, Clonic [3, 28]: 40.0 | Seizure frequency, Atonic [3, 28]: 300.0 | Seizure frequency, Tonic [3, 29]: 116.0 | Seizure frequency, Absence [3, 29]: 140.0 | Seizure frequency, Clonic [3, 29]: 40.0 | Seizure frequency, Atonic [3, 29]: 280.0 | Seizure frequency, Tonic [3, 30]: 116.0 | Seizure frequency, Absence [3, 30]: 140.0 | Seizure frequency, Clonic [3, 30]: 40.0 | Seizure frequency, Atonic [3, 30]: 280.0 | Seizure frequency, Tonic [3, 31]: 1.0 | Seizure frequency, Absence [3, 31]: 40.0 | Seizure frequency, Clonic [3, 31]: 0.0 | Seizure frequency, Atonic [3, 31]: 1.0 | Seizure frequency, Tonic [3, 32]: 20.0 | Seizure frequency, Absence [3, 32]: 0.0 | Seizure frequency, Clonic [3, 32]: 0.0 | Seizure frequency, Atonic [3, 32]: 0.0 | reduction in absence seizures [3, 33]: 100% | reduction in atonic seizures [3, 33]: 100% | reduction in clonic seizures [3, 33]: 100%
